In general, IC50 refers to the midpoint of a concentration-inhibition curve. Usually inhibition stands for the share of the control response that was lost under treatment.

The source made the active and inactive calls. No cut-off for these calls is given here.

The target in assay [1] is T1, Protein farnesyltransferase (Homo sapiens, UniProt P49354+P49356). The assay can be described thus: Inhibition of recombinant human FTase using dansyl-GCVLS as substrate after 15 mins by fluorimetric analysis. It counts as protein-complex assay.
For assay [2], the target named is T1, Protein farnesyltransferase. The assay can be described thus: Inhibition of recombinant human FTase using dansyl-GCVLS as substrate at 100 uM after 15 mins by fluorimetric analysis. It counts as protein-complex assay.
The test system of the next assay is ACHN. Description: Growth inhibition of human ACHN cells at 10 uM after 48 hrs by single dose SRB assay. It counts as functional. On the technique in general: Sulforhodamine B stains cellular protein and so reports cell mass.
Another assay concerns EKVX. The assay can be described thus: Growth inhibition of human EKVX cells at 10 uM after 48 hrs by single dose SRB assay. The class given is functional.
A further assay deals with NCI-H522. The assay can be described thus: Growth inhibition of human NCI-H522 cells at 10 uM after 48 hrs by single dose SRB assay. It counts as functional.
A further assay has as its system OVCAR-3. Description: Growth inhibition of human OVCAR3 cells at 10 uM after 48 hrs by single dose SRB assay. It counts as functional.
In the next assay the test system is A498. The assay can be described thus: Growth inhibition of human A498 cells at 10 uM after 48 hrs by single dose SRB assay. It counts as functional. The note with it: A498, 48 h, read-out: GI.
The test system of a further assay is SK-MEL-5. Description: Growth inhibition of human SK-MEL-5 cells at 10 uM after 48 hrs by single dose SRB assay. The class given is functional.
The next assay deals with UACC-62. The assay can be described thus: Growth inhibition of human UACC62 cells at 10 uM after 48 hrs by single dose SRB assay. It counts as functional.
Another assay relates to LOX IMVI. The assay can be described thus: Growth inhibition of human LOXIMVI cells at 10 uM after 48 hrs by single dose SRB assay. The class given is functional.
For the next assay, the system named is NCI-H226. Description: Growth inhibition of human NCI-H226 cells at 10 uM after 48 hrs by single dose SRB assay. It counts as functional.
For a further assay, the system named is MDA-MB-231. The assay can be described thus: Growth inhibition of human MDA-MB-231 cells at 10 uM after 48 hrs by single dose SRB assay. It counts as functional.
For a further assay, the system named is NCI/ADR-RES. Description: Growth inhibition of human NCI/ADR-RES cells at 10 uM after 48 hrs by single dose SRB assay. It counts as functional.
In the next assay the test system is UO-31. The assay can be described thus: Growth inhibition of human UO31 cells at 10 uM after 48 hrs by single dose SRB assay. The class given is functional. The following applies: UO-31, 48 h, read-out: GI.
A further assay has as its system SN12C. Description: Growth inhibition of human SN12C cells at 10 uM after 48 hrs by single dose SRB assay. The class given is functional.
The subject of a further assay is MDA-MB-468. The assay can be described thus: Growth inhibition of human MDA-MB-468 cells at 10 uM after 48 hrs by single dose SRB assay. The class given is functional. The note with it: MDA-MB-468, 48 h, read-out: GI.
The next assay has as its system OVCAR-8. Description: Growth inhibition of human OVCAR8 cells at 10 uM after 48 hrs by single dose SRB assay. It counts as functional. The note with it: OVCAR-8, 48 h, read-out: GI.
A further assay has as its system CAKI-1. The assay can be described thus: Growth inhibition of human Caki1 cells at 10 uM after 48 hrs by single dose SRB assay. The class given is functional.
A further assay relates to PC-3. The assay can be described thus: Growth inhibition of human PC3 cells at 10 uM after 48 hrs by single dose SRB assay. It counts as functional. The note with it: PC-3, 48 h, read-out: GI.
For another assay, the system named is HCT-15. Description: Growth inhibition of human HCT15 cells at 10 uM after 48 hrs by single dose SRB assay. It counts as functional.
In another assay the test system is U-251. Description: Growth inhibition of human U251 cells at 10 uM after 48 hrs by single dose SRB assay. It counts as functional.
A further assay deals with HL-60(TB). Description: Growth inhibition of human HL-60(TB) cells at 10 uM after 48 hrs by single dose SRB assay. The class given is functional.
The next assay deals with RPMI-8226. Description: Growth inhibition of human RPMI8226 cells at 10 uM after 48 hrs by single dose SRB assay. The class given is functional.
A further assay concerns HOP-92. Description: Growth inhibition of human HOP92 cells at 10 uM after 48 hrs by single dose SRB assay. The class given is functional.
For the next assay, the system named is HCT166. Description: (§1) Growth inhibition of human […] cells at 10 uM after 48 hrs by single dose SRB assay. It counts as functional.
A further assay deals with SW-620. Description: Growth inhibition of human SW620 cells at 10 uM after 48 hrs by single dose SRB assay. It counts as functional.
The test system of another assay is SF-295. The assay can be described thus: Growth inhibition of human SF295 cells at 10 uM after 48 hrs by single dose SRB assay. The class given is functional. The following applies: SF-295, 48 h, read-out: GI.
The subject of another assay is HT-29. The assay can be described thus: Growth inhibition of human HT-29 cells at 10 uM after 48 hrs by single dose SRB assay. The class given is functional.
The subject of a further assay is SNB-19. The assay can be described thus: Growth inhibition of human SNB19 cells at 10 uM after 48 hrs by single dose SRB assay. It counts as functional.
The test system of another assay is CCRF-CEM. The assay can be described thus: Growth inhibition of human CCRF-CEM cells at 10 uM after 48 hrs by single dose SRB assay. It counts as functional.
A further assay relates to MOLT-4. Description: Growth inhibition of human MOLT4 cells at 10 uM after 48 hrs by single dose SRB assay. It counts as functional. The note with it: MOLT-4, 48 h, read-out: GI.
Assay [3] is described as follows: as §1. The class given is functional. The note with it: read-out: GI.

`C/C(=N\NC(=O)CCN1c2ccccc2Sc2ccccc21)C1=C(O)c2ccccc2C1=O`: the IC50 in [1] amounted to 3.73 µM. For the same compound, in assay [2], the inhibition is 95.5%.
On to `N#Cc1cnn(CC(=O)N2c3ccccc3Sc3ccccc32)c1N`, for which the “growth inhibition (GI)” value in the assay with ACHN, with EKVX, with NCI-H522, in the assay with OVCAR-3, in the assay on SK-MEL-5 and in the assay with UACC-62 was “inactive” in each case. Further, the “growth inhibition (GI)” value in the assay on LOX IMVI, with NCI-H226, in the assay on MDA-MB-231, in the assay on NCI/ADR-RES, with SN12C and in the assay on CAKI-1 was “inactive” throughout. Further, the “growth inhibition (GI)” value in the assay on HCT-15, in the assay on U-251, with RPMI-8226, in the assay with HCT166, in the assay on SW-620 and in the assay on HT-29 was “inactive” each time. Moreover, the “growth inhibition (GI)” value in the assay with SNB-19 and in the assay on CCRF-CEM was “inactive” throughout. Moreover, the inhibition of growth at 10 µM in the assay on A498 turned out to be 14%; with UO-31, 6.4%; in the assay on MDA-MB-468, 11.7%; in the assay on OVCAR-8, 5.5%; in the assay with PC-3, 9.9%; with HL-60(TB) (HL-60, 48 h, read-out: GI) it was 46.2%. For the same compound, the inhibition of growth at 10 µM with HOP-92 (HOP-92, 48 h, read-out: GI) worked out at 12.5%; with SF-295 it was 13.1%. For the same compound, the IC50 in assay [1] was 17.2 µM. Moreover, the inhibition in [2] is 94.9%.
`Cc1c2c(nn1CC(=O)N1c3ccccc3Sc3ccccc31)-c1ccccc1C2=O`: the inhibition of growth at 10 µM with ACHN (read-out: GI) stood at 29.7%; with EKVX (read-out: GI), 39.9%; with NCI-H522 (NCI-H522, 48 h, read-out: GI), 9.6%; in the assay on MOLT-4 it was 25.4%; in the assay on OVCAR-3 (OVCAR-3, 48 h, read-out: GI), 29.7%; in the assay on A498, 19.4%. Also, the inhibition of growth at 10 µM in the assay on SK-MEL-5 (SK-MEL-5, 48 h, read-out: GI) is 51.4%; in the assay with UACC-62 (UACC-62, 48 h, read-out: GI), 31.2%; with LOX IMVI (read-out: GI) it was 54.8%; in the assay with NCI-H226 (NCI-H226, 48 h, read-out: GI), 25.3%; in the assay on MDA-MB-231 (MDA-MB-231, 48 h, read-out: GI), 27.8%; with NCI/ADR-RES (read-out: GI) it was 33.5%. Further, the inhibition of growth at 10 µM in the assay with UO-31 is 29.5%; in the assay on SN12C (read-out: GI) it was 34.8%; with MDA-MB-468 it was 37.6%; in the assay on OVCAR-8 it was 28.2%; in the assay with CAKI-1 (CAKI-1, 48 h, read-out: GI), 38.3%; with PC-3 it was 31%. Also, the inhibition of growth at 10 µM is 23% in the assay with HCT-15 (HCT-15, 48 h, read-out: GI); 24.8% with U-251 (U-251, 48 h, read-out: GI); 55.7% in [3]; 23.8% with SW-620 (SW-620, 48 h, read-out: GI); 35.8% in the assay on SF-295; 17.7% in the assay with HT-29 (HT-29, 48 h, read-out: GI). In addition, the inhibition of growth at 10 µM with SNB-19 (SNB-19, 48 h, read-out: GI) came to 35.7%; in the assay with CCRF-CEM (read-out: GI) it was 12.1%. Also, the IC50 in [1] was found to be 3.35 µM. Also, the “growth inhibition (GI)” value with HL-60(TB), in the assay on RPMI-8226 and in the assay with HOP-92 was “inactive” throughout. Moreover, in assay [2], the inhibition amounted to 67.7%.
